Measurements from ChEMBL document CHEMBL3217746, “Edaravone containing isoindoline nitroxides for the potential treatment of cardiovascular ischaemia” (Medchemcomm, 2011).
Activity calls are given as the source filed them. No cut-off for these calls is given here.

Columns and labels:
[1] = system: H9c2; test: Cardioprotective activity in rat H9c2 cells hypoxia-induced ischaemic model assessed as maximal decrease in cell death at 10 uM by propidium iodide exclusion assay; format: functional
[2] = system: H9c2; test: Cardioprotective activity in rat H9c2 cells hypoxia-induced ischaemic model assessed as decrease in cell death at 1 to 100 uM by propidium iodide exclusion assay; format: functional, cell-based
[3] = system: Rattus norvegicus; test: Cardioprotective activity against iv dosed ischaemic brain injury rat model assessed as effective dose after 30 mins; format: functional
[4] = Peak plasma concentration in rat at 1.5 mg/kg, iv bolus dose; format: ADME, organism-based; set-up: dose 1.5 mg/kg, route intravenous
[5] = system: H9c2; test: Cardioprotective activity in rat H9c2 cells hypoxia-induced ischaemic model assessed as maximal decrease in cell death at 100 uM by propidium iodide exclusion assay; format: functional, cell-based

Structure (SMILES)	inhibition at 10 µM [1]	inhibition [2]	ED [3]	Cmax [4]	inhibition [5]
OC[C@H]1O[C@@H](n2cnc3c(NC4CCCC4)ncnc32)[C@H](O)[C@@H]1O [N6-CYCLOPENTYLADENOSINE]	75.4%				
CC1=NN(c2ccccc2)C(=O)C1 [EDARAVONE]		Active	3 mg/kg	20 µM	
CC1=NN(c2ccc3c(c2)C(C)(C)N([O])C3(C)C)C(=O)C1		Active			85.5%
CON1C(C)(C)c2ccc(N3N=C(C)CC3=O)cc2C1(C)C		Active			
